Tests used:
VAP-1 = target: T1, VAP-1 (Homo sapiens, UniProt Q16853); experiment: Compound 1 10 mg QD for 12 weeks in adults with non-cirrhotic NASH phenotype; type: in vivo
T1 construct: from tissue; host or cells: plasma of trial patients
T1 sequence (Q16853 29-763 limits assumed): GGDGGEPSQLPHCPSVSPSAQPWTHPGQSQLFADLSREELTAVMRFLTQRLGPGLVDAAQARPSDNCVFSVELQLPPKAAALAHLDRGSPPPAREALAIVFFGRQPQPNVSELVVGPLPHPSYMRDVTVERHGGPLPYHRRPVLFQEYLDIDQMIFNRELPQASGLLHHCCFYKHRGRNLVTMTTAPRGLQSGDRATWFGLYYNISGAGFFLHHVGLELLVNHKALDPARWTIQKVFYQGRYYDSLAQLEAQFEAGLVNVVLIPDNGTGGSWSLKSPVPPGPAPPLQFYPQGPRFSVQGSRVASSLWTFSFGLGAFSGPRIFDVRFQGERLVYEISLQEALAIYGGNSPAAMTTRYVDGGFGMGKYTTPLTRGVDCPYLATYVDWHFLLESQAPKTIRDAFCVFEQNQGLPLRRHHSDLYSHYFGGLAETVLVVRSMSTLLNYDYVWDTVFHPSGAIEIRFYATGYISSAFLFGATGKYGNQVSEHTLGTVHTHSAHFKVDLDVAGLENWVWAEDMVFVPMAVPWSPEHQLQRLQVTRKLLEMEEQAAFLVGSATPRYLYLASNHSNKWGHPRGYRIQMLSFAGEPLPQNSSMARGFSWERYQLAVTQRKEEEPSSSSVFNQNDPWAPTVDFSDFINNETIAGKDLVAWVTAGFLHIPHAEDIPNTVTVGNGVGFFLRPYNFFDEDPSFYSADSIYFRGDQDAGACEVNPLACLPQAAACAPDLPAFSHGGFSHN
Description: Part 1 interim analysis primary endpoint was safety assessed by adverse events (AEs) and laboratory tests; percent change from baseline (BL) in plasma VAP-1 activity was a secondary endpoint. Exploratory imaging and blood-based biomarkers of liver inflammation and fibrosis were also assessed. Analyses of change (or percent change) from baseline used an ANCOVA model with change (or percent change) from baseline as the dependent variable including treatment group and randomization strata as fixed effects and baseline as a covariate.

[1] = Mouse NASH model (high fat diet + CCl4), Compound 2; type: in vivo; details: C57BL/6J, in vivo, oral; mouse model of NASH; read-out: threshold AUC achieving significant histological improvement
Description: (§1) C57BL/6J mice were fed a high fat diet for 10 weeks to induce obesity (>38 g BW). Obese mice were injected intraperitoneally (i.p.) twice a week for four weeks with 0.5 μl/g 25% CCl4 (formulated in olive oil) to induce fibrosis, and one group of normal BW mice were injected i.p. twice a week for four weeks with olive oil to serve as a healthy control. During the same dosing period, obese mice were fed orally once a day for 28 days with vehicle or varying doses of Compound 2. On CCl4 dosing days, CCl4 was administered at 4 hours post compound or vehicle dosing. On day 27, all animals were fasted for about 16 hours before terminal euthanasia. On day 28, all animals were sacrificed and various biological parameters were analyzed. Total body, liver, heart and brain weight were measured and changes in liver and heart weight were normalized using brain weight.
(§2) Liver samples were collected for whole transcriptome analysis by RNA sequencing (RNAseq). RNAseq library (n=5 per group) preparation and sequencing was performed using Illumina standard protocols. Alignment of sequencing reads was performed using STAR aligner software and read counts were estimated using RSEM. Differentially expressed genes (compared to vehicle-treated NASH control mice) were determined using EdgeR software. Gene ontology analysis was performed using Advaita software with fold-change and adjusted p-value cutoffs of >1.5 and <0.05, respectively. Gene ontologies were derived from the Gene Ontology Consortium database (2019 Apr. 26) (Ashburner et al., Gene ontology: Tool for the unification of biology. Nature Genetics 25(1): 25-9 (2000); Gene Ontology Consortium, Creating the Gene Ontology Resource: Design and Implementation. Genome Research 11: 1425-1433 (2001)).

mouse NASH model = experiment: as above; type: in vivo
Description: as §1, §2

OATP1B3 = target: T2, OATP1B3 (Homo sapiens, UniProt Q9NPD5); experiment: In vitro transporter inhibition, OATP1B3; type: in vitro ADME
T2 sequence (Q9NPD5 1-702): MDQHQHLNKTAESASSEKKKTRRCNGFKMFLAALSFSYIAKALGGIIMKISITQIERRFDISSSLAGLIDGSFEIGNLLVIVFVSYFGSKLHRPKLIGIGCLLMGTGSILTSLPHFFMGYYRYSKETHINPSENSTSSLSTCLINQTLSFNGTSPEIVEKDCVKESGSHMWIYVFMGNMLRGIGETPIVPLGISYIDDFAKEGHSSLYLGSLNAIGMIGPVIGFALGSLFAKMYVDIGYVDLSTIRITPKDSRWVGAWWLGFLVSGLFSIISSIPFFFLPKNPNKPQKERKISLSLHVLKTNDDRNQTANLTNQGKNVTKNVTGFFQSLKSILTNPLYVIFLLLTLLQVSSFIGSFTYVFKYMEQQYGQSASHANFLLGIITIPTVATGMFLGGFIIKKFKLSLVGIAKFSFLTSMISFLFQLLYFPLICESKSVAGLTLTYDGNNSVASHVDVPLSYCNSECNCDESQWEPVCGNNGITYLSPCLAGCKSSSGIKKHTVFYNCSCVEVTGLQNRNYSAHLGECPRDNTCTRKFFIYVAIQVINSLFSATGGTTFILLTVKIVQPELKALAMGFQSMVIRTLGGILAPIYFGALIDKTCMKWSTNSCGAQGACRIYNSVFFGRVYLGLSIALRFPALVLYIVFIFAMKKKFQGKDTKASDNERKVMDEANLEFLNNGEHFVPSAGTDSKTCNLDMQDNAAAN

[2] = oral QD 28 days, all doses tested

Structure (SMILES)	change from BL in cT1, liver fat fraction, liver enzymes, or cytokeratin-18 vs placebo (VAP-1; 10 mg QD 12 weeks)	safety and tolerability (VAP-1; 10 mg QD 12 weeks)	inhibition at 10 mg (VAP-1; 10 mg QD, most subjects, by week 2, sustained through week 12, read-out: inhibition of plasma VAP-1 activity) [%]	AUC [1] [ng·h/mL]	expression of genes associated with collagen extracellular matrix and hepatic stellate cell activation (mouse NASH model; liver RNAseq vs NASH control mice)	liver inflammation (histology) (mouse NASH model; oral QD 28 days)	liver/brain weight (mouse NASH model; oral QD 28 days)	total body weight or heart/brain weight (mouse NASH model; oral QD 28 days)	liver fibrosis (histology) (mouse NASH model; oral QD 28 days, 3 and 10 mpk)	liver steatosis (histology) (mouse NASH model; [2])	serum total cholesterol, triglycerides and ALT (mouse NASH model; [2])	IC50 (OATP1B3) [nM]
COC1CCN(c2ncc(OC/C(=C/F)CN)cn2)CC1 [Compound 1, (E)-3-fluoro-2-(((2-(4-methoxypiperidin-1-yl)pyrimidin-5-yl)oxy)methyl)prop-2-en-1-amine]	no statistically significant differences	well-tolerated with a safety profile similar to placebo	> 98									
N#Cc1nn(-c2cc(Cl)c(Oc3n[nH]c(=O)c4ccccc34)c(Cl)c2)c(=O)[nH]c1=O [Compound 2, 2-(3,5-dichloro-4-((4-oxo-3,4-dihydrophthalazin-1-yl)oxy)phenyl)-3,5-dioxo-2,3,4,5-tetrahydro-1,2,4-triazine-6-carbonitrile]				3320	reducing their expression levels	trend in inflammation reduction	significantly reduced	no effect	significantly reduced	significantly reduced	significantly reduced	710

Source: patent US20230241071A1, “COMBINATION TREATMENT OF LIVER DISORDERS” (Terns Pharmaceuticals, Inc., priority 2021, published 2023)
